Results as given in patent US11014917B2, “5-fluoro-c-(aryl or heterocyclyl)-glycoside derivatives useful as dual SGLT1 / SGLT2 modulators” (Janssen Pharmaceutica NV, priority 2017, dated 2021).
pIC50: −log10 of the molar value.

Assays:
[1] = molecular target: T1, human SGLT2 (Homo sapiens, UniProt P31639); test: SGLT2 assay: Na-dependent 14C-AMG uptake in CHO-K1 cells stably expressing human SGLT2; type: cell-based; settings: for SGLT2 %-inhibition: @ 0.3 μM; for pIC50: average if tested more than once
T1 construct: expressed in transfected cells
T1 sequence (P31639 1-672): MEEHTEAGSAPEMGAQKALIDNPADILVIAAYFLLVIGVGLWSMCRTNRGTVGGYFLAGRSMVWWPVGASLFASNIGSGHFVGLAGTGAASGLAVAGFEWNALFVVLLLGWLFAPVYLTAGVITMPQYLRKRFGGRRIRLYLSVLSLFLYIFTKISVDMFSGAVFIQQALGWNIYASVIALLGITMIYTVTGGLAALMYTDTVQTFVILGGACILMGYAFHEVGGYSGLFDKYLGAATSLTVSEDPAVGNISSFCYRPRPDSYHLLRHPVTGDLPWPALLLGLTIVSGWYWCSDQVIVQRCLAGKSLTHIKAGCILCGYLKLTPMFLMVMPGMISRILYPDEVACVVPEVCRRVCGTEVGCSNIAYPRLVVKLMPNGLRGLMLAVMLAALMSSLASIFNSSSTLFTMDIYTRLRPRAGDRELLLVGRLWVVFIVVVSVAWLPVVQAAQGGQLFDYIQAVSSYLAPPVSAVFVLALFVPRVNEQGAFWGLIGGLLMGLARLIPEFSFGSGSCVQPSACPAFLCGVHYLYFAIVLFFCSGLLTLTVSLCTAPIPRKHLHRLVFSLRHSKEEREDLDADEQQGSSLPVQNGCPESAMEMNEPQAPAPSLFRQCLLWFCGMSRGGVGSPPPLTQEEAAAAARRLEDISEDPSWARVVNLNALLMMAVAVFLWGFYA
Method: (§1) The ability of the compounds of formula (I) of the present invention to treat an SGLT-mediated condition was determined using the following procedures:
(§2) SGLT1 and SGLT2 were cloned in form of cDNA from human small intestine (Genbank M24847), and from human kidney (Genbank M95549), respectively. Subsequently, each full cDNA was subcloned into pcDNA with each construct's integrity verified through follow-on sequencing. To generate CHO-K1 cells that stably express human SGLT1 or human SGLT2, CHO-K1 cells were transfected using DMRIE-C reagent (Life Technologies, Gaithersburg, Md.). Transfected cells were then selected in the presence of 500 μg/ml of the Geneticin (G418 Cellgro Catalog No. 30234-Cl)
(§3) Individual clones were then characterized using the following cell-based assay for sodium-dependent glucose transport:
(§4) Inhibition of SGLT1 and SGLT2 activity was assessed in CHO K1 cells stably expressing either human SGLT1 or SGLT2, using the SGLT specific glucose analog methyl-glucopyranoside (Sigma Catalog No. M-9376). Cells were plated (45,000 cells/well) in white wall 96-well plates (COSTAR, Cat #3903) for 24 hours in growth medium, then a final concentration of 10 mM Na-Butyrate (ALDRICH Cat #30341-0) was added. The cells were incubated for 24 hours. On the day of the assay, cells were rinsed and treated with test compounds (at concentrations of 0.001 μM to 10 μM) in assay buffer (50 mM HEPES, 20 mM Tris base, 5 mM KCl, 1 mM MgCl2, 1 mM CaCl2 and 137 mM NaCl, pH 7.4) for 10 minutes. Cells were then incubated with ^14C-a-methyl-d-glucopyranoside (AMG, Amersham Catalog No. CFB 76), using 0.07 μCi per well in 500 μM AMG final concentration. The cells were incubated for 2 hours at 37° C. with 5% CO2 and washed two times with ice-cold Phosphate Buffer Solution (Cellgro Catalog No. 21030-CV). The cells were then solubilized by adding 60 μl of MICROSCINT™20 and the Na-dependent ^14C-AMG uptake was quantified by measuring radioactivity. Plates were counted in a TopCount (Packard, Meriden, Conn.)
(§5) Representative compounds of the present invention were tested according to the procedures as described in Biological Example 1 and 2 above, with results as listed in Table 5, below. Results are reported as the %-inhibition or IC50 value. Variability for the functional assay was typically within 20%.

[2] = molecular target: T2, human SGLT1 (Homo sapiens, UniProt P13866); test: SGLT1 assay: Na-dependent 14C-AMG uptake in CHO-K1 cells stably expressing human SGLT1; type: cell-based; settings: for SGLT1 %-inhibition / inhibition at 0.3 µM: @ 0.3 μM; for pIC50: average if tested more than once
T2 construct: expressed in transfected cells
T2 sequence (P13866 1-664): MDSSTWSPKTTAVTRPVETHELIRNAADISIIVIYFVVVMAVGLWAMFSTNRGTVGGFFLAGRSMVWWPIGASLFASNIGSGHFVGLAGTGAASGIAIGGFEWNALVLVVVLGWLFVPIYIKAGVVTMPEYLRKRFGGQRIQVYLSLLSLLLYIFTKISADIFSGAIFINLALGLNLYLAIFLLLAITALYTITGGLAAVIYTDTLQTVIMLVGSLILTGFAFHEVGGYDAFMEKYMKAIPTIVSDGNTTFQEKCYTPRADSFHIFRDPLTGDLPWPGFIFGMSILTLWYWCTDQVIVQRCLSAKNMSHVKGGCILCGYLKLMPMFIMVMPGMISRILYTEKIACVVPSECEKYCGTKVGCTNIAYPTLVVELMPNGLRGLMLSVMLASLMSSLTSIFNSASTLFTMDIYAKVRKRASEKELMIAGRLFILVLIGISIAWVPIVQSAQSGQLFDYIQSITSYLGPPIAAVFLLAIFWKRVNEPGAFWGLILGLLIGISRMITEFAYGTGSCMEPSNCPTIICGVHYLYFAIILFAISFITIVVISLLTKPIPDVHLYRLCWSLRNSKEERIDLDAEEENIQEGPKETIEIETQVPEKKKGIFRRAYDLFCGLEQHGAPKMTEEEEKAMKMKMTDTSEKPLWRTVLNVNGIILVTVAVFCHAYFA
Method: as §1, §2, §3, §4, §5

SGLT2 %-inhibition [1] [% @ 0.3 μM] | SGLT1 %-inhibition [2] [% @ 0.3 μM] | pIC50 [1] | pIC50 [2] | inhibition at 0.3 µM [2] [%] | SMILES
62.7 | 45.3 |  |  |  | CC1COc2c(Cc3ccc4c(c3)OCCO4)cc(C3OC(CO)C(F)C(O)C3O)cc21 (mixture of isomers) [Compound 95]
 |  | 8.05 | 7.82 |  | COc1cc(O)c(C2OC(C(C)O)C(F)C(O)C2O)cc1Cc1cc2ccccc2s1 (single isomer, unassigned) [Compound 52]
 |  | 7.59 | 6.98 |  | COc1cc(O)c(C2OC(C(C)O)C(F)C(O)C2O)cc1Cc1cc2ccccc2s1 (single isomer, unassigned) [Compound 53]
30.0 | 76.4 |  |  |  | COc1cc(OCC#N)c([C@@H]2O[C@H](C(C)O)[C@@H](F)[C@H](O)[C@H]2O)cc1Cc1cc2ccccc2s1 (single isomer, unassigned) [Compound 71]
 |  | 7.62 | 6.90 |  | COc1cc(OC)c(C2OC(C(C)O)C(F)C(O)C2O)cc1Cc1cc2ccccc2s1 (single isomer, unassigned) [Compound 72]
 |  | 8.10 | 8.05 |  | COc1cc(O)c([C@@H]2O[C@H](CO)[C@@H](F)[C@H](O)[C@H]2O)cc1Cc1cc2ccccc2s1 [Compound 2, (2S,3R,4R,5S,6R)-2-(5-(benzo[b]thiophen-2-ylmethyl)-2-hydroxy-4-methoxyphenyl)-5-fluoro-6-(hydroxymethyl)tetrahydro-2H-pyran-3,4-diol]
 |  | 8.40 | 7.85 |  | Cc1cc(O)c([C@@H]2O[C@H](CO)[C@@H](F)[C@H](O)[C@H]2O)cc1Cc1cc2ccccc2s1 [Compound 4]
 |  | 8.22 | 7.74 |  | OC[C@H]1O[C@@H](c2cc(Cc3cc4ccccc4s3)c(Cl)cc2O)[C@H](O)[C@@H](O)[C@@H]1F [Compound 7]
 |  | 6.97 | 6.90 |  | COC[C@H]1O[C@@H](c2cc(Cc3cc4ccccc4s3)c(OC)cc2O)[C@H](O)[C@@H](O)[C@@H]1F [Compound 9, (2S,3R,4R,5S,6R)-2-[5-(1-benzothiophen-2-ylmethyl)-2-hydroxy-4-methoxyphenyl]-5-fluoro-6-(methoxymethyl)oxane-3,4-diol]
 |  | 7.09 | 7.07 |  | COc1cc(O)c([C@@H]2O[C@H](C)[C@@H](F)[C@H](O)[C@H]2O)cc1Cc1cc2ccccc2s1 [Compound 10]
 |  | 7.23 | 7.04 |  | COc1cc(O)c([C@@H]2O[C@H](CF)[C@@H](F)[C@H](O)[C@H]2O)cc1Cc1cc2ccccc2s1 [Compound 11, (2S,3R,4R,5S,6R)-2-[5-(1-benzothiophen-2-ylmethyl)-2-hydroxy-4-methoxyphenyl]-5-fluoro-6-(fluoromethyl)oxane-3,4-diol]
 |  | 7.62 | 7.00 |  | COc1cc(OC)c([C@@H]2O[C@H](CO)[C@@H](F)[C@H](O)[C@H]2O)cc1Cc1cc2ccccc2s1 [Compound 12]
 |  | 8.15 | 7.82 |  | Cc1c(Cc2cc3ccccc3s2)cc([C@@H]2O[C@H](CO)[C@@H](F)[C@H](O)[C@H]2O)c(O)c1C [Compound 13]
36.0 | 69.3 |  |  |  | COc1c(Cc2cc3ccccc3s2)cc([C@@H]2O[C@H](CO)[C@@H](F)[C@H](O)[C@H]2O)c(O)c1C [Compound 14]
 |  | 7.17 | 7.00 |  | COc1c(Cc2cc3ccccc3s2)cc([C@@H]2O[C@H](CO)[C@@H](F)[C@H](O)[C@H]2O)c(OC)c1C [Compound 15]
 |  | 7.54 | 6.95 |  | Cc1cc(O)c([C@@H]2O[C@H](C)[C@@H](F)[C@H](O)[C@H]2O)cc1Cc1cc2ccccc2s1 [Compound 16, (2S,3R,4R,5S,6R)-2-(5-(benzo[b]thiophen-2-ylmethyl)-2-hydroxy-4-methylphenyl)-5-fluoro-6-methyl-tetrahydro-2H-pyran-3,4-diol]
 |  | 7.74 | 7.17 |  | COc1cc(C)c(Cc2cc3ccccc3s2)cc1[C@@H]1O[C@H](CO)[C@@H](F)[C@H](O)[C@H]1O [Compound 18]
68.1 | 47.6 |  |  |  | COC[C@H]1O[C@@H](c2cc(Cc3cc4ccccc4s3)c(C)cc2O)[C@H](O)[C@@H](O)[C@@H]1F [Compound 19]
 |  | 6.40 | 6.94 |  | Cc1cc(O)c([C@@H]2O[C@H](CF)[C@@H](F)[C@H](O)[C@H]2O)cc1Cc1cc2ccccc2s1 [Compound 20, (2S,3R,4R,5S,6R)-2-(5-(benzo[b]thiophen-2-ylmethyl)-2-hydroxy-4-methylphenyl)-5-fluoro-6-(fluoromethyl)-tetrahydro-2H-pyran-3,4-diol]
 |  | 6.95 | 6.50 |  | COc1cc(Cl)c([C@@H]2O[C@H](CO)[C@@H](F)[C@H](O)[C@H]2O)cc1Cc1cc2ccccc2s1 [Compound 21]
 |  | 6.62 |  | 62.7 | COc1cc(O)c([C@@H]2O[C@H](CC#N)[C@@H](F)[C@H](O)[C@H]2O)cc1Cc1cc2ccccc2s1 [Compound 22]
 |  | 7.16 |  | 65.2 | Cc1cc(O)c([C@@H]2O[C@H](CC#N)[C@@H](F)[C@H](O)[C@H]2O)cc1Cc1cc2ccccc2s1 [Compound 23]
 |  | 6.48 | 6.01 |  | Cc1cc(O)c([C@@H]2O[C@H](CN)[C@@H](F)[C@H](O)[C@H]2O)cc1Cc1cc2ccccc2s1 [Compound 24]
 |  | 6.01 | 6.07 |  | COc1cc(Cl)c([C@@H]2O[C@H](CC#N)[C@@H](F)[C@H](O)[C@H]2O)cc1Cc1cc2ccccc2s1 [Compound 26]
50.3 |  |  |  |  | COc1cc(O)c([C@@H]2O[C@H](CN)[C@@H](F)[C@H](O)[C@H]2O)cc1Cc1cc2ccccc2s1 [Compound 28]
 |  | 7.21 | 7.89 |  | OC[C@H]1O[C@@H](c2cc(Cc3cc4ccccc4s3)c(C3CC3)cc2O)[C@H](O)[C@@H](O)[C@@H]1F [Compound 29]
51.0 |  |  |  |  | CCOc1cc(O)c([C@@H]2O[C@H](CO)[C@@H](F)[C@H](O)[C@H]2O)cc1Cc1cc2ccccc2s1 [Compound 30]
 |  | 7.72 | 8.05 |  | CCc1cc(O)c([C@@H]2O[C@H](CO)[C@@H](F)[C@H](O)[C@H]2O)cc1Cc1cc2ccccc2s1 [Compound 31]
15.3 |  |  |  |  | CC(C)Oc1cc(O)c([C@@H]2O[C@H](CO)[C@@H](F)[C@H](O)[C@H]2O)cc1Cc1cc2ccccc2s1 [Compound 32]
27.6 | 38.6 |  |  |  | COc1cc(CO)c([C@@H]2O[C@H](CO)[C@@H](F)[C@H](O)[C@H]2O)cc1Cc1cc2ccccc2s1 [Compound 34]
